The values below come from patent publication US20180250207A1, “LIQUID CONCENTRATE FOR PRESERVING COSMETICS” (SCHÜLKE & MAYR GMBH, priority 2015, published 2018).

Structures can show the parent of a compound that is named as a salt.

The assay concerns Staphylococcus aureus, Kocuria rhizophila, Enterobacter gergoviae, Escherichia coli, Klebsiella pneumoniae, Pseudomonas aeruginosa, Pseudomonas fluorescens …. In words: Koko test: preserving effect of preservatives in a cosmetic formulation (PEG-free emulsion for baby wipes), weekly re-inoculation and smears. The settings on record: use concentration of 1.0% by weight in the emulsion. Type of assay: cell-based, bacteria, yeast, moulds. The protocol:
The test described below serves to assess the preserving effect of chemical preservatives in cosmetic formulations. With the help of the described method, the aim is to test the efficacy of chemical preservatives with regard to pack preservation for cosmetic formulations. For this purpose, in different experimental batches to the nonpreserved samples, the preservatives to be investigated are added in different concentrations. A continual germ loading is achieved through periodic inoculation of the experimental batches. In parallel to the inoculation, smears of the individual batches are performed in each case directly beforehand. […] To be on the safe side, negative smears are observed for a further two days and assessed again. Assessment of the preserving effect of the individual product concentrations is performed in a semi-quantitative method via the growth of the individual smears. −=growth-free ++=moderate growth +=weak growth +++=strong growth The growth is differentiated according to bacteria, yeasts and moulds (“B”=bacteria, “Y”=yeasts, “M”=moulds, “Sp”=spore-forming bacteria, “/”=the test was terminated). […] The sample is well preserved if, under the aforementioned laboratory conditions, it withstands a period of six weeks without microbial attack of the sample batches, i.e. microbial growth cannot be detected even after the sixth inoculation. […]

As for `CCCCCCCCN=c1ccn(CCCCCCCCCCn2ccc(=NCCCCCCCC)cc2)cc1` [Octenidine dihydrochloride], the “Preserving effect, overall assessment in words” value was “does not have an antimicrobial effect on its own”.
